Assay results published in patent US20020115613A1, “Treatment of prostate cancer” (priority 2001, published 2002).
* marks the point of attachment. Cbz = O=C(OCc1ccccc1)*; CH2F = FC*

Columns and labels:
[1] = tested on: prostate cancer cells; details: cited from earlier work
[2] = tested on: PC3AR cells; assay: Induction of apoptosis / cell survival (FIG. 1E, 6A); assay type: cell-based; details: 5 μM hydroxyflutamide for 5 days, then 400 ng/ml TRAIL, FIG. 1E
Procedure: PC3AR cells are a clonal cell line derived by stable transfection of PC3 with a full-length human AR cDNA (Dai, J. L., et al., Steroids, 61, 531-539, 1996). PC3Neo cells were stably transfected with neomycin vector alone. Cells were grown in RPMI 1640 with 5% FBS (Hyclone, Logan, Utah), 100 units/ml penicillin, 100 μg/ml streptomycin, 0.25 μg/ml fungizone and G418 (350 μg/ml) to select for neomycin-resistant cells. In experiments using antiandrogens, cells were maintained in 5% DCC stripped serum for at least 48 hr before treatment with hydroxyflutamide (Sigma Chemical Co., St. Louis, Mo.). The medium and all the drugs were replaced every two days. Cells were treated with 200 ng/ml, 400 ng/ml or 600 ng/ml of TRAIL (Biomol Research Laboratories, Inc, Plymouth Meeting, Pa.) for 2, 4, 6, 8, 16 and 20 hr. Cells were treated with 5 μM hydroxyflutamide for 5 days before the commencement of treatment with 400 ng/ml TRAIL.
Two methods were used to measure induction of apoptosis by drug treatment: the MTT assay and the Apoptosense assay. The MTT assay measures mitochondrial enzyme activity and is indicative of the number of surviving cells. The Apoptosense assay is an ELISA, which utilizes M30 antibody to recognize the C-terminal domain (amino acids 387-396) of cytokeratin 18 that is exposed in apoptotic cells after cleavage by caspases.
Cells were seeded in 96-well plates (6000 cells/well) and treatment was started 24 hr after seeding the cells. After completion of the treatment, cells were incubated at 37° C. with the MTT reagent for 3 hr and processed according to manufacturers instructions (Promega Corporation, Madison, Wis.). Color development was measured at 490 nm on a Spectra MAX 340 microplate reader (Molecular Devices, Menlo Park, Calif.).

[3] = tested on: LNCaP C4-2 cells; assay: Western blotting of death receptors, caspases, Bid, cytochrome c, Akt; assay type: cell-based; details: LNCaP C4-2 treated with TRAIL and/or Mifepristone; inhibitor pre-treatment one hr; FIG. 7
Procedure: (§1) LNCaP were obtained from American Type Culture Collection (Rockville, Md.) and LNCaP C4-2 cells were purchased from Urocor Inc., Oklahoma City, Okla. Cells were grown in RPMI 1640 medium supplemented with 10% (LNCaP) or 5% (LNCaP C4-2) fetal bovine serum (Hyclone, Logan, Utah) and grown in the presence of 5% CO2 at 37° C. Cells were treated with 10 μM Mifepristone (Sigma, St. Louis, Mo.) for three days or with increasing concentrations (from 200 ng/ml to 600 ng/ml) of TRAIL (Biomol Research Laboratories, Inc., Plymouth Meetings, Pa.) for varying time intervals 2, 4, 6, 8, 16, 20 and 24 hours (hr). Thus, for treatment with Mifepristone, cells were treated with Mifepristone for three days and then some cells treated (without washing) with TRAIL for indicated periods. Upon completion of the experiment, cells were harvested, and total proteins, cytosol or mitochondrial fractions were isolated as described below. At least three experiments were conducted with a minimum of four plates per treatment per experiment.
(§2) For experiments using inhibitors, the cells were pre-treated with increasing concentrations of the inhibitors (10 μM to 100 μM) for one hr and then with TRAIL. Caspase-8-specific (Z-IETD-FMK) and caspase-9-specific ([…]) inhibitors were purchased from Enzyme Systems Products, Livermore, Calif. The inhibitors were dissolved in DMSO; to limit cellular toxicity, care was taken not to exceed 0.2% DMSO in the culture medium. Appropriate controls included vehicle treated cells with or without the inhibitors.
(§3) Cells were harvested by trypsinization, washed in 1×PBS and cell pellets resuspended in lysis buffer (100 mM Tris-HCl pH 8.0, 0.1% Triton X 100 and protease inhibitor cocktail from Roche Diagnostic Corporation, Indianapolis, Ind.). Cells were incubated over ice for 30 min and centrifuged at 10,000 g at 4° C. for 10 min. The supernatant was collected and the protein concentration estimated using Bio-Rad protein reagent (Bio-Rad Laboratories, Hercules, Calif.).
(§4) Proteins (50 μg, unless stated otherwise) were separated on NuPAGE 10% Bis-Tris gels (Novex pre-cast mini gels, InVitrogen, Carlsbad, Calif.) at 100 volts for 1 hour in the presence of 1×MES-SDS running buffer (InVitrogen, Carlsbad, Calif.). Separated proteins were transferred to (PVDF) membranes (Bio-Rad Laboratories, Hercules, Calif.) at 42 volts for 2.5 hr using a Novex XCell II blotting apparatus in MES transfer buffer in the presence of NuPAGE antioxidant. Transfer of the proteins to the polyvinylidene difluoride (PVDF) membrane was confirmed by staining with Ponceau S (Sigma, St. Louis, Mo.). The blots were blocked in 5% non-fat dry milk in TBS, washed twice for 10 min each with TBS containing 0.1% Tween-20 and incubated for 2 hr at RT with primary antibody diluted in TBS containing 0.5% milk.
(§5) The following antibodies were used in the immunoblots: DR4, DR5 and cytochrome c (Imgenex, San Diego, Calif.), BID (BioSource International, Camarillo, Calif.), caspases-8, -9, and Akt (Cell Signaling Technology, Beverely, Mass.), caspase-3 (BD Pharmingen, San Diego, Calif.) Iκβ and XIAP (Cell Signaling Technology, Beverly, Mass.), cFLIP (StressGen Biotechnology Corp, Victoria, Canada), actin (Sigma Chemical Co., St. Louis, Mo.) and Cox II (Molecular Probes, Eugene, Oreg.). Immunoreactive bands were visualized using ECL detection system (Amersham, Pharmacia Biotech, Arlington Heights, Ill.) and signals were developed after exposure to X-ray film (X-Omat films, Eastman Kodak Company, Rochester, N.Y.).
(§6) For separation of mitochondrial and cytosolic fractions, cells were trypsinized, centrifuged at 600 g for 10 min at 4° C., washed twice in ice-cold PBS and re-suspended in buffer A (20 mM HEPES-KOH, pH 7.2, 10 mM KCl, 1.5 mM MgC12, 1 mM sodium-EDTA, 1 mM sodium-EGTA, 250 mM sucrose and protease inhibitor cocktail). Cells were homogenized on ice with a glass Dounce homogenizer (30 strokes) and were centrifuged at 750 g for 5 min at 4° C. […]

[4] = tested on: LNCaP cells; assay: as above; assay type: cell-based; details: LNCaP treated with TRAIL and/or Mifepristone; inhibitor pre-treatment one hr; FIG. 7
Procedure: as §1, §2, §3, §4, §5, §6

Compound | ability to induce apoptosis in prostate cancer cells (Sridhar et al., 2001) [1] | effect of anti-androgen pre-treatment on response to TRAIL [2] | caspase-8 activation in presence of caspase inhibitor [3] | tBid in presence of caspase inhibitor [3] | caspase-8 activation in presence of caspase inhibitor [4] | tBid in presence of caspase inhibitor [4] | caspase-3 activation in presence of caspase inhibitor [3] | caspase-7 activation in presence of caspase inhibitor [3] | caspase-3 activation in presence of caspase inhibitor [4] | caspase-7 activation in presence of caspase inhibitor [4]
CC/C(=C(\c1ccccc1)c1ccc(OCCN(C)C)cc1)c1ccccc1 [Tamoxifen] | marginal ability to induce apoptosis | – | – | – | – | – | – | – | – | –
CC(C)(O)C(=O)Nc1ccc([N+](=O)[O-])c(C(F)(F)F)c1 [hydroxyflutamide, reference compound] | – | did not alter their response to TRAIL | – | – | – | – | – | – | – | –
Cbz-IETD-CH2F | – | – | blocked activation of caspase-8 | tBid was not present | blocked activation of caspase-8 | tBid was not present | – | – | – | –
Cbz-LEHD-CH2F | – | – | did not affect caspase-8 activity | significantly reduced the levels of tBid | did not affect caspase-8 activity | significantly reduced the levels of tBid | reduced caspase-3 activity | blocked activation of caspase-7 | reduced caspase-3 activity | blocked activation of caspase-7
